Test results published in patent US9988358B2, “Phenazinium mediators” (Roche Diagnostics Operations, Inc., priority 2014, dated 2018).

Columns and labels:
Format in all cases: physicochemical
[1] = Reactivity towards ascorbate, decrease of absorption over time; details: 0.23 mM compound, room temperature, 0.1 M triethylammonium acetate buffer pH 7, 5 fold molar excess of ascorbate
Experimental: 1-Acetylamino-5-methyl-phenazinium trifluormethanesulfonate, 1-Acetylamino-5-ethyl-phenazinium trifluoroacetate, and 1-(3-Carboxy-propionylamino)-5-ethyl-phenazinium (formula III) were compared regarding their reactivity towards ascorbate. To this end, each 0.23 mM of the respective compound was incubated at room temperature in 0.1 M triethylammonium acetate buffer (pH 7) in the presence of a 5 fold molar excess of ascorbate. Decrease of absorption at 517 nm (1-(3-Carboxy-propionylamino)-5-ethyl-phenazinium) or 512 nm (other two compounds) was recorded over time. Whereas with 1-Acetylamino-5-methyl-phenazinium, the absorption decreased by 12% per minute, the decrease slowed to 7% per minute for 1-Acetylamino-5-ethyl-phenazinium, and to less than 5% for 1-(3-Carboxy-propionylamino)-5-ethyl-phenazinium.

[2] = Formal redox potential by cyclic voltammetry in a test strip
Experimental: FIG. 1.) cyclic voltammograms of 1-(3-Carboxy-propionylamino)-5-ethyl-phenazinium (compound of formula (III)). A: Buffer pH 7.0 (blank current), B: 2 mM 1-(3-Carboxy-propionylamino)-5-ethyl-phenazinium in buffer, C: 2 mM 1-(3-Carboxy-propionylamino)-5-ethyl-phenazinium+1.2 mM ascorbic acid in buffer, D: 1.2 mM ascorbic acid in buffer.
The formal redox potential of a typical 1-Acylated amino phenazinium ethosulfate, 1-(3-Carboxy-propionylamino)-5-ethyl-phenazinium (compound of formula (III)), was measured vs. Ag/AgCl at a gold working electrode in a test strip. The cyclic voltammograms show, that a relatively low potential of −100 mV vs. Ag/AgCl is sufficient in order to oxidize the substance.
The quasi reversible oxidation and reduction of the mediator 1-(3-Carboxy-propionylamino)-5-ethyl-phenazinium occurs in a potential range between 0 mV and −500 mV vs. Ag/AgCl via two electron transfer. Ascorbic acid cannot be oxidized in this potential window and the current is similar to the blank current of the pure buffer solution.

[3] = Pot life of mediator formulations; details: 48 h vs t=0 in reaction mixture
Experimental: FIG. 3.) Pot life of mediator formulations. Mediators 1-(3-Carboxy-propionylamino)-5-ethyl-phenazinium and 1-(3-Carboxypropoxy)-5-ethylphenazinium were compared in a pot life experiment. Pot life of 1-(3-Carboxy-propionylamino)-5-ethyl-phenazinium (A: 0 h, B: 48 h) and 1-(3-Carboxypropoxy)-5-ethylphenazinium (C:=0 h, D: 48 h) are shown; Linear: linear regression.
Mediators 1-(3-Carboxy-propionylamino)-5-ethyl-phenazinium and 1-(3-Carboxypropoxy)-5-ethylphenazinium were compared in a pot life experiment. Performance of mediators was measured immediately after preparing the reaction mixture (t=0) and after 48 h. […] Therefore, both mediators seem to be very stable in a formulation.

SMILES | decrease of absorption at 517 nm [1] | redox potential after adding ascorbic acid ([2]; 2 mM mediator + 1.2 mM ascorbic acid in buffer pH 7.0, cyclic voltammetry) [mV vs. Ag/AgCl] | formal redox potential ([2]; gold working electrode in a test strip, physiological conditions (0.9% NaCl), cyclic voltammetry) [mV vs. Ag/AgCl] | change in current after pot life [3] | decrease of absorption at 512 nm [1] [% per minute]
CC[n+]1c2ccccc2nc2c(NC(=O)CCC(=O)O)cccc21 [1-(3-Carboxy-propionylamino)-5-ethyl-phenazinium] | less than 5% | −231 | −236 | no significant decrease in current | –
CC[n+]1c2ccccc2nc2c(OCCCC(=O)O)cccc21 [1-(3-Carboxypropoxy)-5-ethylphenazinium, reference compound] | – | – | – | no significant decrease in current | –
CC[n+]1c2ccccc2nc2c(NC(C)=O)cccc21.O=C([O-])C(F)(F)F [1-Acetylamino-5-ethyl-phenazinium, 1-Acetylamino-5-ethyl-phenazinium trifluoroacetate] | – | – | – | – | 7
CC(=O)Nc1cccc2c1nc1ccccc1[n+]2C.O=S(=O)([O-])C(F)(F)F [1-Acetylamino-5-methyl-phenazinium, 1-Acetylamino-5-methyl-phenazinium trifluormethanesulfonate] | – | – | – | – | 12
